According to the supplement of paper PMC4862054:

Experiments:
Experiment in all cases: normalised response (% of control), CellTox Green; higher = less cell death (100 = DMSO, 0 = benzethonium chloride kill control)
Details in all cases: incubation time: 72 h
HCC1143 = system: HCC1143
Procedure, shortened: (§1)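 In 384-well plates holding compound at 5 concentrations in 10-fold steps over a 10,000-fold range specific to each compound, breast cancer cell lines were seeded as 20 µl suspension and incubated 72 h. CellTox Green fluorescence was measured at 485/520 nm, after which CellTiter-Glo luminescence was measured following 10 min at room temperature. Plate signals were normalised to 0.1 % DMSO (100) and a positive kill control (0), and each value is the normalised signal at a single concentration.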

HDQ-P1 = system: HDQ-P1
Procedure, shortened: as §1

MCF-10A = system: MCF-10A
Procedure, shortened: as §1

MDA-MB-231 = system: MDA-MB-231
Procedure, shortened: as §1

MDA-MB-436 = system: MDA-MB-436
Procedure, shortened: as §1

MDA-MB-468 = system: MDA-MB-468
Procedure, shortened: as §1

MFM-223 = system: MFM-223
Procedure, shortened: as §1

SMILES | normalised response (HCC1143) [%] | normalised response (HDQ-P1) [%] | normalised response (MCF-10A) [%] | normalised response (MDA-MB-231) [%] | normalised response (MDA-MB-436) [%] | normalised response (MDA-MB-468) [%] | normalised response (MFM-223) [%]
Cc1[nH]c2ccccc2c1CCNCc1ccc(/C=C/C(=O)NO)cc1 [Panobinostat] (1000 nM) | 47.3 | 39.2 | 34.9 | -36.7 | 86.6 | -0.17 | 32.5
O=C(/C=C/c1cccc(S(=O)(=O)Nc2ccccc2)c1)NO [Belinostat] (10000 nM) | 79.7 | 76.1 | 54.6 | -5.71 | 112 | 43.3 | 62.1
NC(=O)c1ccc(I)c([N+](=O)[O-])c1 [Iniparib] (10000 nM) | – | – | 77.3 | – | 77.5 | 146 | 95.6
O=C(Nc1ccncc1)C(=O)c1cn(Cc2ccc(Cl)cc2)c2ccccc12 [Indibulin] (1000 nM) | 93.6 | 107 | 87.2 | 51.6 | 80.4 | 91.5 | 71.8
CCc1c2c(nc3ccc(OC(=O)N4CCC(N5CCCCC5)CC4)cc13)-c1cc3c(c(=O)n1C2)COC(=O)[C@]3(O)CC [Irinotecan] (1000 nM) | 96.6 | 93.7 | – | 113 | 44.5 | 141 | 101
CO[C@H]1C[C@@H]2CC[C@@H](C)[C@@](O)(O2)C(=O)C(=O)N2CCCC[C@H]2C(=O)O[C@H]([C@H](C)C[C@@H]2CC[C@@H](OP(C)(C)=O)[C@H](OC)C2)CC(=O)[C@H](C)/C=C(\C)[C@@H](O)[C@@H](OC)C(=O)[C@H](C)C[C@H](C)/C=C/C=C/C=C/1C [Ridaforolimus] (100 nM) | 121 | 70.1 | 97.3 | 51.6 | 53.1 | 196 | 102
c1ccc2c(CCNc3ccc(Nc4ccncc4)cc3)c[nH]c2c1 [Serdemetan] (10000 nM) | 89.7 | 88.7 | 89.8 | 46.1 | 99.5 | 124 | 38.8
Oc1ccc2c(c1)CC[C@H](c1ccccc1)[C@@H]2c1ccc(OCCN2CCCC2)cc1 [Lasofoxifene] (100 nM) | – | 66 | 111 | 125 | 104 | 111 | –
CC(C)C[C@@H](C(=O)N[C@H](C(=O)OC1CCCC1)c1ccccc1)[C@H](O)C(=O)NO [Tosedostat] (1000 nM) | 105 | 57.9 | 80.4 | 14.7 | 75.5 | 33.4 | 31.9
CNC(=O)c1cc(Oc2ccc(NC(=O)Nc3ccc(Cl)c(C(F)(F)F)c3)c(F)c2)ccn1 [Regorafenib] (10000 nM) | 120 | 111 | 94.5 | 94.3 | 113 | 152 | 97.3
C=C1C[C@@H]2[C@H](CC[C@]3(C)C(=O)CC[C@@H]23)[C@@]2(C)C=CC(=O)C=C12 [Exemestane] (10000 nM) | 112 | – | 111 | 92.4 | 90 | 103 | 86.2
COCC[n+]1c2c(n(Cc3cnccn3)c1C)C(=O)c1ccccc1C2=O [YM155] (10000 nM) | 62.8 | 25.1 | -38.3 | 29.1 | 32.2 | -110 | 25.7
O=C(Nc1ccncc1)C(=O)c1cn(Cc2ccc(Cl)cc2)c2ccccc12 [Indibulin] (10000 nM) | 121 | 69.6 | 84 | 46.3 | 93.6 | 63.6 | 72.9
O=C(Nc1cccnc1)N1CCC(Cc2cccc(Oc3ccc(C(F)(F)F)cn3)c2)CC1 [PF-3845] (10000 nM) | 126 | 52.3 | 103 | 108 | 101 | 172 | 78.1
N#Cc1ccc(COC[C@H]2O[C@@H](n3c(NCc4ccc(Cl)c(Cl)c4)nc4c(N)ncnc43)[C@H](O)[C@@H]2O)cc1 (1000 nM) | 115 | 106 | 92.3 | 114 | 96.5 | 143 | 104
CNC(=O)c1cc(Oc2ccc(NC(=O)Nc3ccc(Cl)c(C(F)(F)F)c3)c(F)c2)ccn1 [Regorafenib] (1000 nM) | – | 97.6 | 101 | 115 | 108 | 143 | 102
CN(C)c1nc(N(C)C)nc(N(C)C)n1 [Altretamine] (10000 nM) | 109 | 94.3 | 102 | 112 | 97.5 | 152 | 96.6
COc1cc2ncnc(Nc3ccc(F)c(Cl)c3)c2cc1OCCCN1CCOCC1 [Gefitinib] (1000 nM) | 83.2 | 84.8 | 99.2 | 101 | 91.5 | 125 | 65.4
O=C(/C=C/c1cccc(S(=O)(=O)Nc2ccccc2)c1)NO [Belinostat] (1000 nM) | 100 | 103 | 70 | 22.3 | 79.3 | 97.7 | 78.5
